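How tested: cells in 96-well plates exposed to compound for 48 hours at five concentrations. GI50 marks 50% less growth.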 Active and inactive are the calls of the source. Cut-off read from the data, not from the text of the source: active = GI50 up to about 1.1 µM and inactive = higher.

This is an account of results in ChEMBL document CHEMBL1201862, “PubChem BioAssay data set” (2004).

Among the test systems are DU-145; EKVX; HL-60; HOP-92; IGROV-1; LOX IMVI; MDA-MB-435; MOLT-4; NCI-H23; OVCAR-8; PC-3; RPMI-8226; SF-295; SK-MEL-2; SK-OV-3; TK-10; UACC-62; UO-31; HCC 2998; OVCAR-4.
What all share (assay): NCI anticancer screen, dose series, 48 h

Consider `CC1=NNC(=O)C1C1C=C(c2c[nH]c3ccccc23)OC1=O` (configuration not stated), for which the GI50 in the assay on DU-145 is > 100 µM (inactive); in the assay on EKVX, > 100 µM (inactive); in the assay with HL-60, > 100 µM (inactive); in the assay on HOP-92, > 100 µM (inactive); in the assay on IGROV-1, 37 µM (inactive); with LOX IMVI, > 100 µM (inactive). The GI50 with MDA-MB-435 is > 100 µM (inactive); in the assay with MOLT-4, > 100 µM (inactive); in the assay on NCI-H23 it was > 100 µM (inactive); in the assay on OVCAR-8, > 100 µM (inactive); in the assay on PC-3 it was > 100 µM (inactive); in the assay with RPMI-8226, 39.8 µM (inactive). Besides, the GI50 in the assay with SF-295, in the assay on SK-MEL-2, with SK-OV-3, in the assay with TK-10, with UACC-62 and in the assay with UO-31 was > 100 µM (inactive) throughout.

Regarding `CCOC(=O)C1C(=O)CC(C)(O)C(C(=O)OCC)C1c1ccc(N(C)C)cc1` (configuration not stated), the GI50 in the assay with DU-145, in the assay on EKVX, in the assay with HCC 2998, in the assay with HL-60, with HOP-92 and in the assay on IGROV-1 was > 100 µM (inactive) in each case. Moreover, the GI50 in the assay with LOX IMVI, in the assay with MDA-MB-435, in the assay with MOLT-4, in the assay on NCI-H23, in the assay on OVCAR-4 and with OVCAR-8 was > 100 µM (inactive) in each case. In addition, the GI50 with PC-3, with SF-295, in the assay on SK-MEL-2, in the assay with TK-10, in the assay on UACC-62 and in the assay on UO-31 was > 100 µM (inactive) each time.

Take `COc1ccc(N2C(=O)/C(=C\c3cccc(Oc4ccccc4)c3)S(=O)(=O)C2c2ccccc2)cc1` (configuration not stated): the GI50 was 38.3 µM (inactive) with DU-145; 15.7 µM (inactive) with EKVX; > 100 µM (inactive) in the assay on HCC 2998; 7.24 µM (inactive) in the assay with HL-60; 42.2 µM (inactive) in the assay on HOP-92; 27.6 µM (inactive) in the assay on LOX IMVI. For the same compound, the GI50 in the assay on MDA-MB-435 is 19.8 µM (inactive); with MOLT-4, 0.146 µM (active); in the assay with NCI-H23 it was 28.4 µM (inactive); in the assay with OVCAR-4, 28.6 µM (inactive); with PC-3, 56 µM (inactive); in the assay with SK-MEL-2 it was 37.2 µM (inactive). Moreover, the GI50 in the assay with TK-10 was 37.1 µM (inactive); in the assay with UACC-62, 25.1 µM (inactive); in the assay on UO-31 it was 53.6 µM (inactive).

For the compound `CC(C)NCCC(O)c1cc2ccccc2o1` (configuration not stated), the GI50 in the assay on DU-145, in the assay with EKVX, in the assay on HOP-92, in the assay with IGROV-1, in the assay on LOX IMVI and in the assay on MDA-MB-435 was > 100 µM (inactive) throughout. The GI50 was 20.4 µM (inactive) in the assay with MOLT-4; > 100 µM (inactive) in the assay with NCI-H23; > 100 µM (inactive) in the assay on OVCAR-4; > 100 µM (inactive) in the assay on OVCAR-8; > 100 µM (inactive) with PC-3; > 100 µM (inactive) with RPMI-8226. The GI50 in the assay on SF-295, with SK-MEL-2, in the assay with SK-OV-3, with TK-10, with UACC-62 and in the assay with UO-31 was > 100 µM (inactive) throughout.

For the compound `CS(=O)(=O)CCC1CCC(=O)O1` (configuration not stated), the GI50 with DU-145 was 96.8 µM (inactive); with EKVX it was > 100 µM (inactive); in the assay on HCC 2998, > 100 µM (inactive); in the assay on HL-60, > 100 µM (inactive); in the assay with HOP-92, > 100 µM (inactive); with IGROV-1, > 100 µM (inactive). Moreover, the GI50 with LOX IMVI was 20.6 µM (inactive); in the assay with MDA-MB-435 it was > 100 µM (inactive); with MOLT-4 it was 22 µM (inactive); in the assay on NCI-H23, 94.2 µM (inactive); in the assay with OVCAR-8, > 100 µM (inactive); with PC-3, > 100 µM (inactive). For the same compound, the GI50 was > 100 µM (inactive) with RPMI-8226, 92.9 µM (inactive) in the assay on SF-295, > 100 µM (inactive) in the assay on TK-10 and > 100 µM (inactive) in the assay on UO-31.

`C=C(C)CN(CC#N)CC(=C)C`: the GI50 in the assay on DU-145, with EKVX, in the assay with HCC 2998, in the assay with HL-60, in the assay with IGROV-1 and in the assay with LOX IMVI was > 100 µM (inactive) throughout. For the same compound, the GI50 with MDA-MB-435, in the assay on MOLT-4, in the assay on NCI-H23, with OVCAR-4, in the assay on OVCAR-8 and in the assay with PC-3 was > 100 µM (inactive) in each case. For the same compound, the GI50 in the assay on RPMI-8226, in the assay with SF-295, with SK-MEL-2, with SK-OV-3, with TK-10 and with UACC-62 was > 100 µM (inactive) throughout. In addition, the GI50 with UO-31 is > 100 µM (inactive).

In the case of `Cc1nnc2n1-c1ccccc1-c1[nH]c3ccccc3c1C2`, the GI50 is > 100 µM (inactive) in the assay on DU-145; > 100 µM (inactive) in the assay with EKVX; 21.2 µM (inactive) in the assay on HL-60; 93.8 µM (inactive) with HOP-92; 70 µM (inactive) with IGROV-1; 89.9 µM (inactive) in the assay on LOX IMVI. In addition, the GI50 with MDA-MB-435 was 60.1 µM (inactive); in the assay with MOLT-4, 45 µM (inactive); with NCI-H23, 63.7 µM (inactive); in the assay with OVCAR-4, 45.2 µM (inactive); with OVCAR-8 it was 38.1 µM (inactive); in the assay on PC-3, 46.1 µM (inactive). The GI50 is 32.2 µM (inactive) in the assay on RPMI-8226; 56.1 µM (inactive) in the assay on SF-295; > 100 µM (inactive) with SK-OV-3; > 100 µM (inactive) with TK-10; 25.1 µM (inactive) in the assay with UACC-62; 28.8 µM (inactive) with UO-31.

In the case of `CC(C)(C)/C(=N\Nc1nc2ccccc2[nH]1)c1ccccn1`, the GI50 in the assay with DU-145 was 95.9 µM (inactive); in the assay on HOP-92, 24.9 µM (inactive); in the assay on IGROV-1, 80.7 µM (inactive); in the assay on LOX IMVI, > 100 µM (inactive); in the assay on MDA-MB-435, > 100 µM (inactive); with MOLT-4 it was 59.6 µM (inactive). Also, the GI50 with NCI-H23 is 82.8 µM (inactive); in the assay with OVCAR-4 it was 53.7 µM (inactive); in the assay with OVCAR-8, > 100 µM (inactive); in the assay on PC-3, 81.5 µM (inactive); in the assay with RPMI-8226 it was 12.9 µM (inactive); in the assay on SK-MEL-2 it was > 100 µM (inactive). In addition, the GI50 in the assay on SK-OV-3 was > 100 µM (inactive); in the assay on TK-10 it was 24.7 µM (inactive); in the assay with UACC-62, > 100 µM (inactive); with UO-31, 42.9 µM (inactive).

With `O=C(Nc1nc(C23CC4CC(CC(C4)C2)C3)cs1)c1c(O)c2ccccc2[nH]c1=O`, the GI50 in the assay with DU-145, in the assay with EKVX, in the assay with HCC 2998, in the assay with HL-60, in the assay on HOP-92 and with IGROV-1 was > 100 µM (inactive) throughout. In addition, the GI50 is > 100 µM (inactive) in the assay on LOX IMVI; > 100 µM (inactive) in the assay with MDA-MB-435; > 100 µM (inactive) in the assay with MOLT-4; > 100 µM (inactive) with NCI-H23; 60.5 µM (inactive) in the assay with OVCAR-4; > 100 µM (inactive) in the assay with OVCAR-8. For the same compound, the GI50 with PC-3, in the assay with RPMI-8226, in the assay on SF-295, in the assay with TK-10 and in the assay with UO-31 was > 100 µM (inactive) in each case.

Consider `O=C(OCCN=C1c2ccccc2CCc2ccccc21)c1cc([N+](=O)[O-])cc([N+](=O)[O-])c1`, for which the GI50 in the assay on DU-145 was > 31.6 µM (inactive); in the assay with EKVX, > 31.6 µM (inactive); in the assay on HL-60, 25.7 µM (inactive); with HOP-92, > 31.6 µM (inactive); in the assay on IGROV-1 it was 28.2 µM (inactive); in the assay on LOX IMVI it was > 31.6 µM (inactive). In addition, the GI50 is > 31.6 µM (inactive) in the assay with MDA-MB-435; 4.22 µM (inactive) in the assay on MOLT-4; > 31.6 µM (inactive) in the assay with NCI-H23; 78.2 µM (inactive) in the assay on OVCAR-4; > 31.6 µM (inactive) in the assay with OVCAR-8; > 31.6 µM (inactive) in the assay with PC-3. Also, the GI50 in the assay with RPMI-8226 was 5.09 µM (inactive); in the assay on SF-295, 23.6 µM (inactive); in the assay with SK-MEL-2 it was > 31.6 µM (inactive); with SK-OV-3, > 100 µM (inactive); in the assay on TK-10, > 31.6 µM (inactive); in the assay on UACC-62, > 31.6 µM (inactive). For the same compound, the GI50 in the assay on UO-31 was 21.9 µM (inactive).

With `Nc1ncnc2ccc(Sc3ccc4ncnc(N)c4c3)cc12`, the GI50 in the assay with DU-145 was > 100 µM (inactive); with EKVX it was > 100 µM (inactive); in the assay on HL-60, > 100 µM (inactive); in the assay with HOP-92, 71.3 µM (inactive); in the assay with IGROV-1, > 100 µM (inactive); with LOX IMVI, > 100 µM (inactive). Further, the GI50 in the assay with MDA-MB-435, in the assay on MOLT-4, in the assay on OVCAR-4, in the assay on OVCAR-8, in the assay on PC-3 and in the assay with RPMI-8226 was > 100 µM (inactive) in each case. The GI50 in the assay on SF-295, in the assay with SK-MEL-2, in the assay with SK-OV-3, with TK-10, with UACC-62 and in the assay with UO-31 was > 100 µM (inactive) throughout.
